Laboratory results: patent US8153679B2, “Radiolabelled inhibitors of the glycine 1 transporter” (Hoffmann-La Roche Inc., priority 2008, dated 2012)

Experiments:
GlyT1 transporter [1] = biological target: T1, GlyT1 transporter (Mus musculus, UniProt P28571); assay: GlyT1 transporter inhibition in vitro (test method of WO2006/082001); type: cell-based; conditions: unlabelled compounds
T1 sequence (P28571 1-651 isoform P28571-2): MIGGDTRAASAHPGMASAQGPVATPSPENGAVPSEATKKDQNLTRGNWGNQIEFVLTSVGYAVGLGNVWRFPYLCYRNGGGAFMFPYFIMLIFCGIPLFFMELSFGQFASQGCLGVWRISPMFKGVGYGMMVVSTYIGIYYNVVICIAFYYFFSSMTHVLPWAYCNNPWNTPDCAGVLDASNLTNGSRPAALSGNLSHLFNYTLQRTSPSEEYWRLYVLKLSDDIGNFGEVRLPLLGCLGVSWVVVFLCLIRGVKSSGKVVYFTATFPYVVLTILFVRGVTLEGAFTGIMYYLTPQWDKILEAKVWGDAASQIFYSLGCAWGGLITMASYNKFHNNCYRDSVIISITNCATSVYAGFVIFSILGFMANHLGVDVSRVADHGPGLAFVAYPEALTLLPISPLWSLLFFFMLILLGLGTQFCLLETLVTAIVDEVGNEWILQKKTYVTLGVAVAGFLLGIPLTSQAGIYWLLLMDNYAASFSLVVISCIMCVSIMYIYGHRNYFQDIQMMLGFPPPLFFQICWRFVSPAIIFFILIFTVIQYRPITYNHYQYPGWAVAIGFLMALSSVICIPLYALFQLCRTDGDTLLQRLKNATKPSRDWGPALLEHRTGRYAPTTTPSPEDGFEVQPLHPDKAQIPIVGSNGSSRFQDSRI
Description: The test method is described in WO2006/082001.

[2] = tested on: glycine transporter 1 (GlyT1); assay: In vivo PET imaging in the baboon; design: species or system baboon (papio anubis); conditions: intravenous 1 minute bolus, PET 0 to 90 minutes
Procedure: 1) PET imaging with [^11C-][2-Isopropoxy-5-methanesulfonyl-phenyl)-[5-(tetrahydro-pyran-4-yl)-1,3-dihydro-isoindol-2-yl]-methanone] and [^11C]-5-Methanesulfonyl-2-((S)-2,2,2-trifluoro-1-methyl-ethoxy)-phenyl]-[5-(tetrahydro-pyran-4-yl)-1,3-dihydro-isoindol-2-yl]-methanone
(§1) The experiments described below were carried out in male baboons (papio anubis). Animals were fasted for 12 hours prior to the PET study. Baboons were initially sedated intramuscularly with Ketamine hydrochloride with restraint dosages of 5-7 mg/kg to achieve a light plane of anesthesia and then maintained on continuous Propofol intravenous infusion @ […] (DIPRIVAN® Injectable Emulsion). Circulatory volume was maintained by infusion of isotonic saline. A femoral arterial catheter was inserted for blood sampling. Physiological vital signs including heart rate, ECG, blood pressure (Spacelabs Monitor, Issaquah, Wash., USA) and oxygen saturation (Nellcor OxiMax® N-600™ Pulse Oximeter, Pleasanton, Calif., USA) were continuously monitored throughout the study. The animal was positioned in an ECAT HRRT® brain PET scanner (High Resolution Research Tomograph, CPS Innovations, Inc., Knoxville, Tenn.). The head of the animal was fitted with a thermoplastic mask that was attached to a head holder for reproducible fixation. […]

GlyT1 transporter [3] = biological target: T2, GlyT1 transporter (Rattus norvegicus, UniProt P28572); assay: Autoradiographic studies in rat brain sections; type: binding; conditions: for distribution of the binding sites in rat brain sections: radiotracer 1 nM, 60 min, 37° C., high densities in thalamus, brainstem, pons, medulla oblungata, cerebellum, lower in striatum, cortex, hippocampus
T2 construct: Ten μm-thick sagittal sections were cut in a Cryostat and thaw-mounted on adhesion glass slides; from tissue; host or cells: rat brain, sagittal sections (male Wistar rats)
T2 sequence (P28572 1-638): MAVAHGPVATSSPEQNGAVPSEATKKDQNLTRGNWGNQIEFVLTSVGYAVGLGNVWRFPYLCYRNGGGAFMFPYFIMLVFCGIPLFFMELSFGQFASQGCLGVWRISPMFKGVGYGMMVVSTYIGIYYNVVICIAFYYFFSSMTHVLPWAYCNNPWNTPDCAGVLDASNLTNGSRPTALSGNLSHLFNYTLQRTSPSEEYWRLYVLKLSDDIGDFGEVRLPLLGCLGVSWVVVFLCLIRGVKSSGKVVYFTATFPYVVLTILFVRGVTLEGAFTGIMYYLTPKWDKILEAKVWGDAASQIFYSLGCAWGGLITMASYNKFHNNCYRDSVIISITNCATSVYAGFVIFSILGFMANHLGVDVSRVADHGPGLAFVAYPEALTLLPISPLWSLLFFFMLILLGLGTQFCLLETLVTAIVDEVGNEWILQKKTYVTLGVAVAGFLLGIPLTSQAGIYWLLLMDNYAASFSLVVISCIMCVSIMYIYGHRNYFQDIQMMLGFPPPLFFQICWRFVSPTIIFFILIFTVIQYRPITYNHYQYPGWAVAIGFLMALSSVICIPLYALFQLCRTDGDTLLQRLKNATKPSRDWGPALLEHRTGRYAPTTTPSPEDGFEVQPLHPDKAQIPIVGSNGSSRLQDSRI
Description: Autoradiographic Studies in Rat Brain
The distribution of the binding sites of [^3H][5-Methanesulfonyl-2-((S)-2,2,2-trifluoro-1-methyl-ethoxy)-phenyl]-[5-(tetrahydro-pyran-4-yl)-1,3-dihydro-isoindol-2-yl]-methanone and [^3H][2-Isopropoxy-5-methanesulfonyl-phenyl)-[5-(tetrahydro-pyran-4-yl)-1,3-dihydro-isoindol-2-yl]-methanone] was investigated in the rat brain.
Male Wistar rats were used for these experiments. Rats were sacrificed; their brains were rapidly removed, frozen in dry ice powder. Ten μm-thick sagittal sections were cut in a Cryostat and thaw-mounted on adhesion glass slides. Brain sections were first incubated for 10 min. in Ringer buffer (NaCl 120 mM, KCl 5 mM, CaCl2 2 mM, MgCl2 1 mM, Tris-HCl 50 mM pH 7.4) at 37° C. and then for 60 min. in Ringer buffer at 37° C. containing either [^3H]5-Methanesulfonyl-2-((S)-2,2,2-trifluoro-1-methyl-ethoxy)-phenyl]-[5-(tetrahydro-pyran-4-yl)-1,3-dihydro-isoindol-2-yl-methanone or [^3H]-[2-Isopropoxy-5-methanesulfonyl-phenyl)-[5-(tetrahydro-pyran-4-yl)-1,3-dihydro-isoindol-2-yl]-methanone] at concentration 1 nM. For the evaluation of the non-specific-binding (NSB) of the radiotracer an additional group of sections was incubated with Ringer buffer containing the radiotracer and the reference GlyT1 inhibitor Org 24598 at the concentration 10 μM (60 in at 37° C.). At the end of the incubation, sections were rinsed 2×5 min. and 1×15 min. in ice-cold (4° C.) Ringer buffer and then rapidly dipped three times in distilled water at 4° C. Slide-mounted brain sections were dried under a flow of cold air and exposed together with [^3H]-microscale to a Fuji Imaging plate for 5 days. […] The total amount of radiotracer bound to the brain areas of interest (TB) were measured using the MCID image analysis program and expressed as fmol of bound radiotracer/mg of protein. The amount of [^3H]5-Methanesulfonyl-2-((S)-2,2,2-trifluoro-1-methyl-ethoxy)-phenyl]-[5-(tetrahydro-pyran-4-yl)-1,3-dihydro-isoindol-2-yl]-methanone specifically bound to the GlyT1 carrier (SB) was calculated according to the formula: SB=TB−NSB.

GlyT1 transporter [4] = assay: PET imaging with pharmacological challenges (blocking of radiotracer uptake); type: in vivo, baboon (papio anubis); conditions: intravenous infusion 0.2 mg/kg, after 10 min 0.5 mg/kg for remainder 100 min; started 20 min before radiotracer
Procedure: as §1, with “fixation. A 6 min transmission scan with a 1 mCi Cs-137 point source was initially done for attenuation correction.” for “fixation.”

[5] = Preliminary pharmacokinetic experiments and modeling (blocker infusion); type: in vivo, baboon; conditions: intravenous infusion 0.2 mg/kg then 0.5 mg/kg
Procedure: Each animal received two sequential administrations of the radiotracer on the same day. The first administration of radiotracer was used to determine radiotracer baseline uptake. Following the baseline scan, the baboon received an intravenous administration of unlabeled [5-methanesulfonyl-2-((S)-2,2,2-trifluoro-1-methyl-ethoxy)-phenyl]-[5-(tetrahydro-pyran-4-yl)-1,3-dihydro-isoindol-2-yl]-methanone (blocker). The blocker infusion started 20 min before (the second) radiotracer injection. The blocker was first infused at dose=0.2 mg/kg. After 10 min, the flow rate was changed to deliver 0.5 mg/kg for the remainder 100 min of the study.

Compound: CC(C)Oc1ccc(S(C)(=O)=O)cc1C(=O)N1Cc2ccc(C3CCOCC3)cc2C1 [(2-isopropoxy-5-methanesulfonyl-phenyl)-[5-(tetrahydro-pyran-4-yl)-1,3-dihydro-isoindol-2-yl]-methanone]
- IC50 (GlyT1 transporter [1]): 14 nM

Compound: C[C@H](Oc1ccc(S([11CH3])(=O)=O)cc1C(=O)N1Cc2ccc(C3CCOCC3)cc2C1)C(F)(F)F [Example 2, [^11C-methyl]-[5-Methanesulfonyl-2-((S)-2,2,2-trifluoro-1-methyl-ethoxy)-phenyl]-[5-(tetrahydro-pyran-4-yl)-1,3-dihydro-isoindol-2-yl]-methanone]
- brain uptake of radiotracer [2]: rapidly taken up in multiple brain areas

Compound: CC(C)Oc1ccc(S([11CH3])(=O)=O)cc1C(=O)N1Cc2ccc(C3CCOCC3)cc2C1 [Example 4, [^11C-methyl]-(2-Isopropoxy-5-methanesulfonyl-phenyl)-[5-(tetrahydro-pyran-4-yl)-1,3-dihydro-isoindol-2-yl]-methanone]
- brain uptake of radiotracer [2]: rapidly taken up in multiple brain areas

Compound: CN(CC[C@@H](Oc1ccc(C(F)(F)F)cc1)c1ccccc1)CC(=O)O [Org 24598]
- effect of co-incubation on binding of both [3H] radiotracers to rat brain sections (GlyT1 transporter [3]; high concentrations of inhibitor (Org 24598 10 μM), radiotracers 1 nM): completely abolished binding

Compound: C[C@H](Oc1ccc(S(C)(=O)=O)cc1C(=O)N1Cc2ccc(C3CCOCC3)cc2C1)C(F)(F)F [[5-methanesulfonyl-2-((S)-2,2,2-trifluoro-1-methyl-ethoxy)-phenyl]-[5-(tetrahydro-pyran-4-yl)-1,3-dihydro-isoindol-2-yl]-methanone]
- effect of pretreatment with cold blocker on specific uptake of both [11C] radiotracers in brain (GlyT1 transporter [4]): completely blocked the specific uptake
- IC50 (GlyT1 transporter [1]): 28 nM
- plasma levels during the PET scan time interval [5]: constant plasma levels

Compound: [3H-methyl]-[5-Methanesulfonyl-2-((S)-2,2,2-trifluoro-1-methyl-ethoxy)-phenyl]-[5-(tetrahydro-pyran-4-yl)-1,3-dihydro-isoindol-2-yl]-methanone [Example 1]
- distribution of the binding sites in rat brain sections (GlyT1 transporter [3]): corresponded to the known distribution of the GlyT1 transporter

Compound: [^3H-methyl]-(2-Isopropoxy-5-methanesulfonyl-phenyl)-[5-(tetrahydro-pyran-4-yl)-1,3-dihydro-isoindol-2-yl]-methanone [Example 3]
- distribution of the binding sites in rat brain sections (GlyT1 transporter [3]): corresponded to the known distribution of the GlyT1 transporter
